Measurements reported in patent publication US7611856B2 (priority 2003, dated 2009).

System: BoNT
Type: biochemical, Clostridium botulinum

Substance: (SNRTRIDQGNQRATRNleL)4K2KC(beta)A [Substrate 39]
- specific turnover over unspecific protease background cleavage reactions: shown to increase the specific turnover
